This passage reports C50 results from ChEMBL document CHEMBL1132252, “Nonapeptide analogues containing (R)-3-hydroxybutanoate and beta-homoalanine oligomers: synthesis and binding affinity to a class I major histocompatibility complex protein” (1999).

Non-standard residues stand in square brackets, D forms with d. Residues, ends and D or L forms follow the SMILES beside them. *: point of attachment. X1 = C[C@H](CC(=O)N[C@@H](CCCCN)C(=O)O)OC(=O)C[C@H](C)NC(=O)C[C@@H](C)O*; β3hA = C[C@H](N)CC(=O)O

The assay relates to RMA-S. In words: The compound was tested for binding affinity against murine RMA-S cells transfected with B*2705 by FMC analysis. The format is functional, Mus musculus.
Turning to `C[C@H](CC(=O)N[C@H](C)CC(=O)N[C@@H](CCCCN)C(=O)O)NC(=O)C[C@@H](C)NC(=O)C[C@@H](C)NC(=O)[C@H](C)NC(=O)[C@H](CCCN=C(N)N)NC(=O)CN.O=C(O)C(F)(F)F.O=C(O)C(F)(F)F.O=C(O)C(F)(F)F`, the C50 is 2.8 µM. The value for `C[C@H](CC(=O)N[C@@H](CCCCN)C(=O)O)NC(=O)C[C@H](C)NC(=O)C[C@@H](C)NC(=O)C[C@H](C)NC(=O)[C@H](C)NC(=O)[C@H](CCCN=C(N)N)NC(=O)CN.O=C(O)C(F)(F)F.O=C(O)C(F)(F)F.O=C(O)C(F)(F)F` was 4.8 µM; that for `C[C@H](NC(=O)[C@H](CCCN=C(N)N)NC(=O)CN)C(=O)N[C@@H](C)CC(=O)N[C@@H](C)CC(=O)N[C@@H](C)CC(=O)N[C@@H](C)CC(=O)N[C@@H](CCCCN)C(=O)O` was 6 µM; that for `C[C@H](CC(=O)N[C@@H](C)CC(=O)N[C@@H](C)CC(=O)N[C@@H](CCCCN)C(=O)O)NC(=O)C[C@@H](C)NC(=O)[C@H](C)NC(=O)[C@H](CCCN=C(N)N)NC(=O)CN` was 30 µM.

`C[C@H](CC(=O)N[C@@H](C)CC(=O)N[C@@H](C)CC(=O)N[C@@H](CCCCN)C(=O)O)OC(=O)C[C@@H](C)OC(=O)[C@H](C)NC(=O)[C@H](CCCN=C(N)N)NC(=O)CN` gave a C50 of 17 µM. As for `C[C@H](CC(=O)N[C@@H](CCCCN)C(=O)O)OC(=O)C[C@H](C)NC(=O)C[C@@H](C)OC(=O)C[C@H](C)NC(=O)[C@H](C)NC(=O)[C@H](CCCN=C(N)N)NC(=O)CN` (H-GRA[β3hA]-X1), the figure is 2.8 µM; as for H-GRAFVTIGK-OH, 2.8 µM.
